Reference: paper PMC6688371, “Effect of the inhaled PDE4 inhibitor CHF6001 on biomarkers of inflammation in COPD” (Respiratory Research, 2019)
Like-named read-outs stand apart in the source and are kept apart here.

What was measured:
[1] = system: TNFα; assay: Ex-vivo lipopolysaccharide (LPS) stimulated TNFα in whole blood; set-up: species or system human; settings: Day 32, geometric mean (%CV)
Description: A patient had to have a minimum of one acceptable sputum sample on Day 20, 26 or 32 to be included in the sputum biomarker evaluation for that treatment period, with the available cell count and biomarker data averaged for each patient. The mean change from baseline (pre-dose on Day 1 of each treatment period) was then compared between treatments using an analysis of covariance (ANCOVA) that included treatment, patient and period as fixed effects, and baseline values as covariate. The mean change from baseline to Day 32 for biomarkers in blood were analysed using the same model as for sputum data. All data were log-transformed before analysis, and the results are presented as ratio of geometric means. […]
Approximately 80 to 100 cells were to be counted per square , with the number of live leukocytes, dead leukocytes and squamous cells counted. […]
Only one of the sputum samples induced at 2 h post-dose on Days 20, 26 or 32 was used to evaluate CHF6001 concentration, with the evaluation performed only if a minimum of 300 mg of residual sputum remained. […] The concentration of CHF6001 was evaluated using a LC-MS/MS method following solid phase extraction. […]
The levels of inflammatory biomarkers were evaluated from blood collected at 2 h post-dose […]
Levels of biomarkers were assessed as follows: […]
• Serum SP-D: Sandwich Immunoassay, using PheraSTAR Plate Reader . […]

[2] = Sputum concentration of CHF6001; format: in vivo, human; settings: for concentration at 2 h: sputum, mean of all values measured on Days 20, 26 and 32, geometric mean (%CV), read-out: Sputum concentration at 2 h post-dose
Procedure: The mean changes from baseline to Day 32 for lung function, CAT and TDI were analysed using similar methodology to sputum biomarkers, but were not log-transformed. […] The sputum concentration of CHF6001 was also evaluated at 2 h post-dose, using the mean of all values measured on Days 20, 26 and 32. Pharmacokinetic variables were summarised using geometric means and coefficients of variation, except for Tmax,ss, which is presented as median (range). […]
Only one of the sputum samples induced at 2 h post-dose on Days 20, 26 or 32 was used to evaluate CHF6001 concentration, with the evaluation performed only if a minimum of 300 mg of residual sputum remained. Approximately 30 mg of sputum plug was transferred to a polypropylene cryotube, and was shipped in an upright position at –80C to a central laboratory for analysis. The concentration of CHF6001 was evaluated using a LC-MS/MS method following solid phase extraction. Validation procedures were the same as those listed above for biomarkers. […]
over the calibration range of 30 to 20,000 ng/mL. The precision and accuracy of the method […]
30 ng/mL and within 15% at all other concentrations. No significant matrix effects were […]
temperature (nominally +22C), after storage for 93 days in a freezer set at –80C and after four freeze-thaw cycles at nominally –80C / +22C. The method was considered to be suitable for measuring concentrations of CHF6001 in human sputum samples from […]

[3] = system: patients with COPD; assay: Spirometry and symptoms (FEV1, FVC, CAT, TDI); format: in vivo, human; settings: for TDI, adjusted mean difference vs placebo (95% CI): Day 32; for CAT, adjusted mean difference vs placebo (95% CI) / Pre-dose FEV1, adjusted mean difference vs placebo (95% CI) / Pre-dose FVC, adjusted mean difference vs placebo (95% CI): change from baseline to Day 32
Procedure: Induced sputum was collected pre-dose on Day 1 of each treatment period (for the first treatment period, the sample could be collected up to 10 days prior to Day 1), and 2 h post-dose on Days 20, 26 and 32 (see the Additional file 1 for further detail on sputum and blood analysis methods). Blood samples were taken pre-dose on Day 1, and pre-dose and at 30 min, and 1, 1.5, 2, 3, 4, 6, 8 and 12 h post-dose on Day 32. Other pre-dose assessments on Days 1 and 32 were spirometry (forced expiratory volume in 1 s [FEV1] and forced vital capacity [FVC]), forced oscillometry, and COPD Assessment Test (CAT), with Baseline Dyspnea Index recorded on Day 1 and Transition Dyspnea Index (TDI) on Day 32. Central and peripheral airways mechanics were assessed using forced oscillometry, with the following values determined: inspiratory and expiratory resistance (at 5 and 19 Hz), inspiratory and expiratory reactance, tidal expiratory flow limitation and the percentage of flow limited breaths.
The mean changes from baseline to Day 32 for lung function, CAT and TDI were analysed using similar methodology to sputum biomarkers, but were not log-transformed. […] The sputum concentration of CHF6001 was also evaluated at 2 h post-dose, using the mean of all values measured on Days 20, 26 and 32. Pharmacokinetic variables were summarised using geometric means and coefficients of variation, except for Tmax,ss, which is presented as median (range).

CS(=O)(=O)Nc1ccc(C(=O)O[C@@H](Cc2c(Cl)c[n+]([O-])cc2Cl)c2ccc(OC(F)F)c(OCC3CC3)c2)cc1OCC1CC1 [CHF6001]
Tumour necrosis factor α ex-vivo, post-baseline ([1]; 800 µg BID): 2096.916 (177.0) pg/mL | Tumour necrosis factor α ex-vivo, post-baseline ([1]; 1600 µg BID): 1750.418 (192.0) pg/mL | Sputum concentration in relation to dose ([2]; 2 h post-dose, steady state (after Day 20), 800 vs 1600 μg BID): dose-proportionality was observed | Kp at 2 h ([2]; both sexes, human, sputum relative to plasma, inhaled, 2 h post-dose, steady state): ~2000 | concentration at 2 h ([2]; both sexes, human, 800 μg BID inhaled): 4900 ng/mL | concentration at 2 h ([2]; both sexes, human, 1600 μg BID inhaled): 10200 ng/mL | TDI, adjusted mean difference vs placebo (95% CI) ([3]; 800 µg BID): 0.3 (–0.1 to 0.8) | CAT, adjusted mean difference vs placebo (95% CI) ([3]; 800 µg BID): –0.3 (–1.4 to 0.8) | Pre-dose FEV1, adjusted mean difference vs placebo (95% CI) ([3]; 800 µg BID): 13 (–26 to 52) mL | Pre-dose FVC, adjusted mean difference vs placebo (95% CI) ([3]; 800 µg BID): 25 (–58 to 109) mL | TDI, adjusted mean difference vs placebo (95% CI) ([3]; 1600 µg BID): –0.1 (–0.6 to 0.4) | CAT, adjusted mean difference vs placebo (95% CI) ([3]; 1600 µg BID): –0.3 (–1.3 to 0.8) | Pre-dose FEV1, adjusted mean difference vs placebo (95% CI) ([3]; 1600 µg BID): –35 (–74 to 4) mL | Pre-dose FVC, adjusted mean difference vs placebo (95% CI) ([3]; 1600 µg BID): –26 (–109 to 58) mL | Lung function (FEV1 and FVC) or symptoms vs placebo ([3]; either dose (800 or 1600 μg BID)): Neither CHF6001 dose differed from placebo
